Molecular target: T1, His tagged PTPN2 (TC45) protein (Homo sapiens, UniProt P17706)
T1 construct: made in house
T1 sequence (P17706 with tags, fused parts or gaps isoform P17706-2): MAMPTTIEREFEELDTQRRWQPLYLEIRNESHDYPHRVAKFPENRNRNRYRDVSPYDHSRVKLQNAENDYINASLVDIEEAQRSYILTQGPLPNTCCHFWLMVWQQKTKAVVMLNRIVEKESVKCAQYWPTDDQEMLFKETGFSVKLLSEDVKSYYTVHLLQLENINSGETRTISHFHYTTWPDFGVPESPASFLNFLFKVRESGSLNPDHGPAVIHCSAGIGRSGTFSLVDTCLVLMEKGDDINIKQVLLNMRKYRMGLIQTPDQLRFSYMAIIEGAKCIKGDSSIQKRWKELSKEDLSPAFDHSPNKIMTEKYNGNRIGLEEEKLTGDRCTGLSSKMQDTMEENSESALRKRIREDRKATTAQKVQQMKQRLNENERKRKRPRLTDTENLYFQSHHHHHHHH
Assay: Mobility shift assay (MSA) for potency of PTPN2 inhibitors
Format: biochemical
Details: read-out: PTPN2 MSA IC50
Procedure: Compound activity was determined using in house His tagged PTPN2 (TC45) protein (SEQ ID NO: 1) in an in vitro enzymatic reaction. The enzymatic assay used to determine activity was a mobility shift assay using a LabChip EZ Reader by Caliper Life Sciences. The enzymatic reaction was carried out in assay buffer (50 mM HEPES pH 7.5, 1 mM EGTA, 10 mM EDTA, 0.01% Tween® 20, and 2 mM DTT). The compounds were dispensed on a white 384 well ProxiPlate™ (PerkinElmer Catalog #6008289) plate using the Labcyte Echo at varying concentrations (12 point, 1:3 dilution). The enzyme (at 0.5 nM) was incubated with compound for 10 minutes at room temperature. Then the substrate (phosphorylated insulin receptor probe sequence: ((OG488)-(NH—CH2—CH2—O—CH2—CH2—O—CH2—CO)-T-R-D-I-(PY)-E-T-D-Y-Y-R-K-K-NH2) (SEQ ID NO: 2) was added at […] to the plates and incubated for another 10 minutes at room temperature. Finally, a quench solution (water and 4-bromo-3-(2-oxo-2-propoxyethoxy)-5-(3-{[1-(phenylmethanesulfonyl)piperidin-4-yl]amino}phenyl)thiophene-2-carboxylic acid) was added to the plates, which were then run on the EZ Reader (excitation 488 nm, emission 530 nm) to measure % conversion (the amount of phosphorylated substrate which was de-phosphorylated by PTPN2). […] The % inhibition was then used to calculate the IC50 values.

Row | Structure (SMILES) | IC50 [nM]
1 | O=C1CN(c2c(O)cc3ccc(C4=CCN(S(=O)(=O)c5ccsc5)C4)cc3c2F)S(=O)(=O)N1 [Compound 314, 5-{1-fluoro-3-hydroxy-7-[1-(thiophene-3-sulfonyl)-2,5-dihydro-1H-pyrrol-3-yl]naphthalen-2-yl}-1λ^6,2,5-thiadiazolidine-1,1,3-trione] | < 1
2 | O=C1CN(c2c(O)cc3ccc(OCCn4cccn4)cc3c2F)S(=O)(=O)N1 [Compound 188, 5-{1-fluoro-3-hydroxy-7-[2-(1H-pyrazol-1-yl)ethoxy]naphthalen-2-yl}-1λ^6,2,5-thiadiazolidine-1,1,3-trione] | 1 to 10
3 | O=C1CN(c2c(O)cc3ccc(C4=CCN(S(=O)(=O)C5CCC5)C4)cc3c2F)S(=O)(=O)N1 [Compound 316, 5-{7-[1-(cyclobutanesulfonyl)-2,5-dihydro-1H-pyrrol-3-yl]-1-fluoro-3-hydroxynaphthalen-2-yl}-1λ^6,2,5-thiadiazolidine-1,1,3-trione] | < 1
4 | O=C1CN(c2c(O)cc3ccc(C4=CCNC4)cc3c2F)S(=O)(=O)N1 [Compound 265, 5-[7-(2,5-dihydro-1H-pyrrol-3-yl)-1-fluoro-3-hydroxynaphthalen-2-yl]-1λ^6,2,5-thiadiazolidine-1,1,3-trione] | 1 to 10
5 | O=C1CN(c2c(O)cc3ccc(OCCC4CCCCC4)cc3c2F)S(=O)(=O)N1 [Compound 320, 5-[7-(2-cyclohexylethoxy)-1-fluoro-3-hydroxynaphthalen-2-yl]-1λ^6,2,5-thiadiazolidine-1,1,3-trione] | < 1
6 | Cc1n[nH]c(C)c1-c1ccc2cc(O)c(N3CC(=O)NS3(=O)=O)c(F)c2c1 [Compound 319, 5-[7-(3,5-dimethyl-1H-pyrazol-4-yl)-1-fluoro-3-hydroxynaphthalen-2-yl]-1λ^6,2,5-thiadiazolidine-1,1,3-trione] | 1 to 10
7 | O=C1CN(c2c(O)cc3ccc(CC4CCN(CC(F)(F)F)C4)cc3c2F)S(=O)(=O)N1 (stereo not shown) [Compound 251, 5-(1-fluoro-3-hydroxy-7-{[1-(2,2,2-trifluoroethyl)pyrrolidin-3-yl]methyl}naphthalen-2-yl)-1λ^6,2,5-thiadiazolidine-1,1,3-trione] | 1 to 10
8 | O=C1CN(c2c(O)cc3ccc(CNCC4CC4)cc3c2F)S(=O)(=O)N1 [Compound 161, 5-(7-{[(cyclopropylmethyl)amino]methyl}-1-fluoro-3-hydroxynaphthalen-2-yl)-1λ^6,2,5-thiadiazolidine-1,1,3-trione] | 10 to 100
9 | O=C1CN(c2c(O)cc3ccc(OCCNCCOC(F)(F)F)cc3c2F)S(=O)(=O)N1 [Compound 137, 5-[1-fluoro-3-hydroxy-7-(2-{[2-(trifluoromethoxy)ethyl]amino}ethoxy)naphthalen-2-yl]-1λ^6,2,5-thiadiazolidine-1,1,3-trione] | 1 to 10
10 | CCCCS(=O)(=O)N1CC=C(c2ccc3cc(O)c(N4CC(=O)NS4(=O)=O)c(F)c3c2)C1 [Compound 291, 5-{7-[1-(butane-1-sulfonyl)-2,5-dihydro-1H-pyrrol-3-yl]-1-fluoro-3-hydroxynaphthalen-2-yl}-1λ^6,2,5-thiadiazolidine-1,1,3-trione] | < 1
11 | CCNC(=O)NCCOc1ccc2cc(O)c(N3CC(=O)NS3(=O)=O)c(F)c2c1 [Compound 270, N-ethyl-N′-(2-{[8-fluoro-6-hydroxy-7-(1,1,4-trioxo-1λ^6,2,5-thiadiazolidin-2-yl)naphthalen-2-yl]oxy}ethyl)urea] | 1 to 10
12 | N#CCCCCS(=O)(=O)N1CC=C(c2ccc3cc(O)c(N4CC(=O)NS4(=O)=O)c(F)c3c2)C1 [Compound 293, 5-{3-[8-fluoro-6-hydroxy-7-(1,1,4-trioxo-1λ^6,2,5-thiadiazolidin-2-yl)naphthalen-2-yl]-2,5-dihydro-1H-pyrrole-1-sulfonyl}pentanenitrile] | < 1
13 | CCNCCOc1ccc2cc(O)c(N3CC(=O)NS3(=O)=O)c(F)c2c1 [Compound 144, 5-{7-[2-(ethylamino)ethoxy]-1-fluoro-3-hydroxynaphthalen-2-yl}-1λ^6,2,5-thiadiazolidine-1,1,3-trione] | 1 to 10
14 | O=C1CN(c2c(O)cc3ccc(CC4CNC4)cc3c2F)S(=O)(=O)N1 [Compound 267, 5-{7-[(azetidin-3-yl)methyl]-1-fluoro-3-hydroxynaphthalen-2-yl}-1λ^6,2,5-thiadiazolidine-1,1,3-trione] | 10 to 100
15 | COC(=O)[C@@H](N)CCOc1ccc2cc(O)c(N3CC(=O)NS3(=O)=O)c(F)c2c1 [Compound 317, methyl (2S)-2-amino-4-{[8-fluoro-6-hydroxy-7-(1,1,4-trioxo-1λ^6,2,5-thiadiazolidin-2-yl)naphthalen-2-yl]oxy}butanoate] | 1 to 10
16 | O=C1CN(c2c(O)c(Br)c3ccc(C4=CCN(S(=O)(=O)C5CC5)C4)cc3c2F)S(=O)(=O)N1 [Compound 231A, 5-{4-bromo-7-[1-(cyclopropanesulfonyl)-2,5-dihydro-1H-pyrrol-3-yl]-1-fluoro-3-hydroxynaphthalen-2-yl}-1λ^6,2,5-thiadiazolidine-1,1,3-trione] | 1 to 10
17 | O=C(O)CNc1ccc2cc(O)c(N3CC(=O)NS3(=O)=O)c(F)c2c1 [Compound 280, {[8-fluoro-6-hydroxy-7-(1,1,4-trioxo-1λ^6,2,5-thiadiazolidin-2-yl)naphthalen-2-yl]amino}acetic acid] | 10 to 100
18 | C=C(c1ccc2cc(O)c(N3CC(=O)NS3(=O)=O)c(F)c2c1)c1c(C)c(C)c(C)c(C)c1C [Compound 241, 5-{1-fluoro-3-hydroxy-7-[1-(pentamethylphenyl)ethenyl]naphthalen-2-yl}-1λ^6,2,5-thiadiazolidine-1,1,3-trione] | > 100
19 | O=C1CN(c2c(O)cc3ccc(C4=CCN(S(=O)(=O)CCC(F)(F)F)C4)cc3c2F)S(=O)(=O)N1 [Compound 287, 5-{1-fluoro-3-hydroxy-7-[1-(3,3,3-trifluoropropane-1-sulfonyl)-2,5-dihydro-1H-pyrrol-3-yl]naphthalen-2-yl}-1λ^6,2,5-thiadiazolidine-1,1,3-trione] | < 1
20 | CS(=O)(=O)N1CCC(Oc2ccc3cc(O)c(N4CC(=O)NS4(=O)=O)c(F)c3c2)CC1 [Compound 284, 5-(1-fluoro-3-hydroxy-7-{[1-(methanesulfonyl)piperidin-4-yl]oxy}naphthalen-2-yl)-1λ^6,2,5-thiadiazolidine-1,1,3-trione] | 1 to 10
21 | CC(C)NCCOc1ccc2cc(O)c(N3CC(=O)NS3(=O)=O)c(F)c2c1 [Compound 145, 5-(1-fluoro-3-hydroxy-7-{2-[(propan-2-yl)amino]ethoxy}naphthalen-2-yl)-1λ^6,2,5-thiadiazolidine-1,1,3-trione] | 10 to 100
22 | O=C1CN(c2c(O)cc3ccc(CC(F)F)cc3c2F)S(=O)(=O)N1 [Compound 196, 5-[7-(2,2-difluoroethyl)-1-fluoro-3-hydroxynaphthalen-2-yl]-1λ^6,2,5-thiadiazolidine-1,1,3-trione] | 1 to 10
23 | COCCS(=O)(=O)N1CC=C(c2ccc3cc(O)c(N4CC(=O)NS4(=O)=O)c(F)c3c2)C1 [Compound 286, 5-{1-fluoro-3-hydroxy-7-[1-(2-methoxyethanesulfonyl)-2,5-dihydro-1H-pyrrol-3-yl]naphthalen-2-yl}-1λ^6,2,5-thiadiazolidine-1,1,3-trione] | < 1
24 | O=C1CN(c2c(O)cc3ccc(C4CCCO4)cc3c2F)S(=O)(=O)N1 (stereo not shown) [Compound 190] | 1 to 10
25 | O=C1CN(c2c(O)cc3ccc(C4=CCN(S(=O)(=O)c5ccccc5)C4)cc3c2F)S(=O)(=O)N1 [Compound 315, 5-{7-[1-(benzenesulfonyl)-2,5-dihydro-1H-pyrrol-3-yl]-1-fluoro-3-hydroxynaphthalen-2-yl}-1λ^6,2,5-thiadiazolidine-1,1,3-trione] | < 1
26 | CC(C)CCNc1ccc2c(F)c(O)c(N3CC(=O)NS3(=O)=O)c(F)c2c1 [Compound 148, 5-{1,4-difluoro-3-hydroxy-7-[(3-methylbutyl)amino]naphthalen-2-yl}-1λ^6,2,5-thiadiazolidine-1,1,3-trione] | 1 to 10
27 | O=C1CN(c2c(O)cc3ccc(C4=CCN(S(=O)(=O)CCCC(F)(F)F)C4)cc3c2F)S(=O)(=O)N1 [Compound 290, 5-{1-fluoro-3-hydroxy-7-[1-(4,4,4-trifluorobutane-1-sulfonyl)-2,5-dihydro-1H-pyrrol-3-yl]naphthalen-2-yl}-1λ^6,2,5-thiadiazolidine-1,1,3-trione] | < 1
28 | C[C@H](O)CCCc1ccc2cc(O)c(N3CC(=O)NS3(=O)=O)c(F)c2c1 [Compound 153, 5-{1-fluoro-3-hydroxy-7-[(4S)-4-hydroxypentyl]naphthalen-2-yl}-1λ^6,2,5-thiadiazolidine-1,1,3-trione] | 1 to 10
